In one data set the test system is a range of cell types. The following applies: cited from earlier work.
Data set [1] concerns primary bovine satellite cells (BSCs). Kind of data set: Carotenoid quantification by quantitative HPLC in engineered BSCs. In kind it is cell-based. Conditions: for Effect of ketoconazole and puromycin conditioning on β-carotene: pCrtB/I/Y BSCs.
Another data set concerns C2C12s. Nature of the data set: Eight-day cell growth by dsDNA quantitation, C2C12s. The following applies: for Growth of engineered cells: over eight days, vs cells engineered with pGFP or pCrtB. The data set is classed as cell-based, mouse. How it is done: (§1) Growth and development of engineered cells—Growth of engineered BSCs and C2C12s was analyzed using a dsDNA quantitation kit (ThermoFisher #F2962) on days 1, 2, 4, 6, and 8 of culture. Cells were plated in 96-well plates for each time-point at a density of 1000 cells/well. At each time-point, media was removed from wells and plates were frozen at −80° C. After all time-points were frozen, plates were thawed to room temperature, and 100 uL of UltraPure water (ThermoFisher #10977023) was added to wells. Plates were incubated at 37° C. for one hour, re-frozen to −80° C., and re-thawed to room temperature. Wells were stained with 100 uL of Hoechst 33258 working solution. Fluorescence was measured with a Synergy H1 microplate reader (BioTek Instruments, Winooski, VT, USA) using excitation and emission filters centered at 360 and 460 nm, respectively. In parallel, a 96-well plate was seeded with a range of known cell densities, incubated for 12 hours, and measured using the same protocol to obtain a standard curve and convert fluorescence values to cell number. […]
(§2) Carotenoid optimization—Two methods were explored for optimizing carotenoid production in pCrtB/I/Y cells. […] To determine an appropriate puromycin concentration for increasing enzyme expression, engineered cells were cultured in media containing 2.5 μg/mL puromycin (1× puro), 5 μg/mL puromycin (2× puro) or 10 μg/mL puromycin (4× puro), and relative GFP expression was determined via flow cytometry as a proximate measure of enzyme expression. Briefly, cells were cultured, harvested, and GFP was analyzed using a BD FACSCalibur (BD Sciences) or Attune N×T (ThermoFisher) flow cytometer. Appropriate gating was performed using pGFP and unmodified cells as positive and negative controls, and mean fluorescent intensity was determined. Data were analyzed with the FlowJo software (v10). […]

The subject of data set [2] is BSCs. Kind of data set: Eight-day cell growth by dsDNA quantitation, BSCs. The data set is classed as cell-based, bovine. Conditions: 5 μg/mL, pCrtB/I/Y BSCs, 8-day growth. How it is done:
as §1
Carotenoid optimization—Two methods were explored for optimizing carotenoid production in pCrtB/I/Y cells. […] Briefly, cells were cultured, harvested, and GFP was analyzed using a BD FACSCalibur (BD Sciences) or Attune N×T (ThermoFisher) flow cytometer. […] Data were analyzed with the FlowJo software (v10). […]

The subject of data set [3] is C2C12 mouse skeletal myoblasts. Nature of the data set: Carotenoid quantification by quantitative HPLC in engineered C2C12s. In kind it is cell-based. Conditions: pCrtB/I/Y C2C12s.
The subject of data set [4] is bovine satellite cells (BSCs). Nature of the data set: Adipogenic transdifferentiation of BSCs with free fatty acids (Oil Red O staining). In kind it is cell-based. The following applies: 100 uM to 150 uM. The source says: This adipogenic transdifferentiation protocol will be further optimized through a fractional factorial experimental design, testing various concentrations oleic, myristoleic, linoleic, erucic, and elaidic acid. Lipid accumulation will be verified qualitatively with Oil Red O staining and quantified with the AdipoRed plate reader assay (Lonza). Transdifferentiation of satellite cells into mature adipocytes will enable muscle and fat components of cultured meat to be generated from a single cell source throughout this proposal, thus increasing project efficiency and impact.

For the next data set, the system named is pCrtB/I/Y C2C12s. Kind of data set: GFP expression by flow cytometry under puromycin selection, C2C12s. The data set is classed as cell-based, mouse. Conditions: 4× concentration (10 μg/mL).
Source text: as §2, with “cells. The first focused on increasing gene expression by increasing puromycin selective pressure. The second focused on increasing levels of the carotenoid pathway precursor farnesyl pyrophosphate (FPP) by inhibiting downstream reactions in one of FPP's alternative metabolic pathways—cholesterol synthesis—using the small molecule ketoconazole (Sun et al., 2007). By exploring these two approaches, the possibility for a single approach to fail to address a rate-limiting step in carotenoid production was reduced.” for “cells.”

Data set [5] concerns pCrtB/I/Y BSCs. Nature of the data set: GFP expression by flow cytometry under puromycin selection, BSCs. In kind it is cell-based, bovine.
Source text: as §2, with “cells. The first focused on increasing gene expression by increasing puromycin selective pressure. The second focused on increasing levels of the carotenoid pathway precursor farnesyl pyrophosphate (FPP) by inhibiting downstream reactions in one of FPP's alternative metabolic pathways—cholesterol synthesis—using the small molecule ketoconazole (Sun et al., 2007). By exploring these two approaches, the possibility for a single approach to fail to address a rate-limiting step in carotenoid production was reduced.” for “cells.”

For data set [6], the system named is BSCs. Kind of data set: Four-day growth of BSCs in serum-free B8 media and FGF-2 dilutions. In kind it is cell-based, bovine. The following applies: four days, within B8 media. Here is the method:
Briefly, B8 media will be comprised of DMEM:F12 (1:1) supplemented with L-ascorbic acid 2-phosphate (200 ug/mL), insulin (20 ug/mL), transferrin (20 ug/mL), sodium selenite (20 ng/mL), FGF-2 (10 ng/mL), neuregulin 1 (NRG-1; 0.1 ng/mL), TGFβ-3 ([…]), and insulin-like growth factor 1 (IGF-1; 10 ng/mL). Formulations absent one or more growth factors will simultaneously generated, as will formulations lacking all growth factors but containing previously reported serum-replacements made from rapeseed peptide fractions, maitake mushroom extract, and silk-derived sericin proteins.

The test system of the next data set is engineered BSCs. Kind of data set: Thiobarbituric acid reactive substances (TBARS) lipid oxidation assay, raw or heated cells. The data set is classed as cell-based, bovine. How it is done: Lipid oxidation—To analyze the antioxidant functionality of carotenoids in cells, a thiobarbituric acid reactive substances (TBARS) assay was performed. This assay measures malondialdehyde (MDA), a byproduct of unsaturated fatty acid oxidation, and so serves as a measure of lipid oxidation in cells. As lipid oxidation is often catalyzed by the processes that generate oxidative pressure, such as cooking of meat, the TBARS assay was performed on both “raw” cells, and cells that had been heated to mimic cooking. Briefly, engineered BSCs were cultured as previously described, harvested, and counted. 1.5 million cells were aliquoted to tubes for heated or unheated analysis, washed 1× in PBS, pelleted, and the supernatant PBS was removed. Collected cell pellets were stored overnight at 4° C. The next day, samples designated for heating were incubated for 10 minutes in a 100° C. heat block, cooled to room temperature, and placed on ice. All cells (heated and unheated) were suspended in 500 μL of PBS, incubated for 2 hours on ice, and sonicated on ice using a probe sonicator (Branson, St. Louis, MO, USA) at 15% intensity for 5×15 second pulses, with 20 second intervals between pulses. Next, the TBARS assay (Cayman Chemical #700870, Ann Arbor, MI, USA) was performed with 100 μL of sonicated cell lysates, following the manufacturers protocol and determining MDA by measuring absorbance at 535 nm compared to a standard curve of known MDA concentrations. The remainders of the cell lysates were frozen at −80° C. until protein quantification was performed via Bradford assay (ThermoFisher #23200) following the manufacturers protocol. Briefly, 5 μL of cell lysates were incubated for 10 minutes with 250 uL of Coomassie reagent, and the absorbance was measured at 595 nm and compared to a BSA standard curve. TBARS measurements were normalized with protein content for each sample in order to obtain corrected cellular MDA (mg/g protein).

In data set [7] the test system is pCrtB/I/Y BSCs. Nature of the data set: Pax7 and MHC immunostaining of engineered BSCs before and after differentiation. The data set is classed as cell-based, bovine. Here is the method:
Immunofluorescence and cell characterization—To confirm the identity of isolated primary BSCs, cells were stained for Pax7 and Myosin Heavy Chain (MHC) before and after differentiation, respectively. These markers confirm the primary and terminal states of satellite cell myogenesis and therefore act to verify the nature and myogenicity of isolated cells. Proliferative cells and cells after one week of differentiation were fixed with 4% paraformaldehyde (ThermoFisher #AAJ61899AK) for 30 minutes, washed in PBS, permeabilized for 15 minutes using 0.5% Triton X (Sigma #T8787) in PBS, blocked for 45 minutes using 5% goat serum (ThermoFisher #16210064) in PBS with 0.05% sodium azide (Sigma #S2002), and washed with PBS containing 0.1% Tween-20 (Sigma #P1379). […]
Growth and development of engineered cells—Growth of engineered BSCs and C2C12s was analyzed using a dsDNA quantitation kit (ThermoFisher #F2962) on days 1, 2, 4, 6, and 8 of culture. […] Fluorescence was measured with a Synergy H1 microplate reader (BioTek Instruments, Winooski, VT, USA) using excitation and emission filters centered at 360 and 460 nm, respectively. In parallel, a 96-well plate was seeded with a range of known cell densities, incubated for 12 hours, and measured using the same protocol to obtain a standard curve and convert fluorescence values to cell number. […]

The subject of another data set is pepsin. Conditions: cited from earlier work.
The mark [8] stands for this setting: increasing levels of selection antibiotic.
Setting [9] is: heated samples (10 minutes, 100° C.).

Values joined by “and” are separate entries in the source; they are usually repeats but may differ in a detail not shown here. Identical values can stand only once.

Regarding `C=C(C)[C@@H]1CCC(C)=C[C@H]1c1c(O)cc(CCCCC)cc1O` [cannabidiol], in the data set with a range of cell types, the “Treatment range explored without mention of excess cell death” value was 1-50 uM and 0.313-15.65 ug/mL.
As for `CC(=O)N1CCN(c2ccc(OCC3COC(Cn4ccnc4)(c4ccc(Cl)cc4Cl)O3)cc2)CC1` (stereo not drawn) [ketoconazole], in data set [1], the “Effect of ketoconazole and puromycin conditioning on β-carotene” value was “additive increase in β-carotene”. The Effect on growth entry is reported as “not significantly effect growth” in the data set with C2C12s (5 μg/mL, pCrtB/I/Y C2C12s, 8-day growth) and “not significantly effect growth” in the data set with BSCs [2]. The “Effect of ketoconazole and puromycin together on β-carotene” value in [3] is on record as “do not significantly increase β-carotene”.
In the case of `CCCCC/C=C\C/C=C\CCCCCCCC(=O)O` [linoleic acid], the “Lipid accumulation (Oil Red O)” value in [4] was “Sparse lipid accumulation”.
For the molecule `COc1ccc(C[C@H](N)C(=O)N[C@H]2[C@@H](O)[C@H](n3cnc4c(N(C)C)ncnc43)O[C@@H]2CO)cc1` [puromycin], in data set [1] (setting [8]), the “Increase in carotenoid levels” value is given as roughly 3 fold. In addition, the “Effect of ketoconazole and puromycin conditioning on β-carotene” value in data set [1] is “additive increase in β-carotene”. Further, the “Effect on GFP expression” value is “significant increase in GFP expression” with pCrtB/I/Y C2C12s and “significant increase in GFP expression” with pCrtB/I/Y BSCs [5] (4× concentration (10 μg/mL), BSCs). Also, the “Effect of ketoconazole and puromycin together on β-carotene” value in data set [3] is “do not significantly increase β-carotene”. Further, the “Increase in gene expression (as shown by GFP expression)” value with pCrtB/I/Y BSCs [5] (setting [8]) is on record as “two-fold”.
Consider FGF-2: fibroblast growth-factor 2, for which the “FGF-2 concentration showing significantly improved growth vs FGF-2-free B8 media” value in the data set on BSCs [6] was “greater than or equal to 1.25 ng/mL”.
As for pSBbi-(CMV-CrtB-T2A-)-pur [pCrtB], the “Cellular MDA (lipid oxidation)” value was 3.6 mg/g protein in the data set with engineered BSCs (setting [9]) and 1.7 mg/g protein with engineered BSCs (unheated samples).
Take “pSBbi-(CMV-CrtB-T2A-CrtI-P2A-GFP)-pur [pCrtB/I]”: the “Growth of engineered cells” value in the data set with C2C12s is “higher growth over eight days”. In addition, the “Cellular MDA (lipid oxidation)” value with engineered BSCs (setting [9]) was determined as 1.7 mg/g protein; in the data set on engineered BSCs (unheated samples), 1.0 mg/g protein.
As to “pSBbi-(CMV-CrtY-T2A-CrtB-T2A-CrtI-P2A-GFP)-pur [pCrtB/I/Y]”, the “Myogenic potential (Pax7 and MHC staining)” value in the data set with pCrtB/I/Y BSCs [7] is “maintenance of Pax7 expression and MHC-positive myotube formation”. Further, the “Growth of engineered cells” value in the data set on C2C12s is reported as “higher growth over eight days”. Moreover, the “Cellular MDA (lipid oxidation)” value worked out at 2.3 mg/g protein in the data set with engineered BSCs (setting [9]) and 1.1 mg/g protein in the data set with engineered BSCs (unheated samples).

B1: V565: anti-TNFα nanobody V565 (SEQ ID NO:7) (protein)
VHH: DVQLVESGGGLVQPGGSLKLSCAASGFDFSSHWMYWVRQAPGKELEWLSEINTNGLITHYGDSVKGRFTVSRNNAANKMYLELTRLEPEDTALYYCARNQHGLNKGQGTQVTVSS
B1: in the data set with pepsin, the Sensitivity to pepsin entry is reported as “sensitive to pepsin” and the “Stability in the gastric environment” value is listed as “largely stable in the gastric environment”.
